Measurements published in patent publication US20170119020A1, “METHOD OF FEEDING AN ANIMAL” (CARGILL, INCORPORATED, priority 2014, published 2017).

Legend:
Ross 308 breeders = assay: Broiler breeder performance, weeks 30 through 39 of age (Example 4); type: in vivo, chicken; details: breeder diet
From the text: All breeders received the same standard control diet during the pre-experimental period (19-30 weeks of age). […] In total there were 24 floor pens with 30 breeder females and 3 males (after allocation). The experimental period lasted 9 weeks; the breeders received a lay phase diet during the entire experimental period. Feed and water were restricted. Feed amount depended on body weight development. Water was provided for two hours a day, crops were checked regularly to ensure the correct amount of water was provided. [table]

Ross 308 embryos = assay: Embryonic mortality, hatchability and chick quality at hatch (Example 5); type: in vivo, chicken; details: for Chick length / Chick weight average / Chick weight dissected chicks / Liver weight / Relative asymmetry / YFBM (yolk free body mass) / Yolk weight: at hatch; for Chick length / Chick weight average / Chick weight dissected chicks / Liver weight / Relative asymmetry / YFBM (yolk free body mass) / Yolk weight / Egg weight EQ / Relative liver weight / Relative yolk weight / Relative chick weight: breeder diet; for Relative liver weight / Relative yolk weight: percentage of chick weight; for Relative chick weight: percentage of egg weight at EO; for Early Embryonic Mortality: E0-E7; for Mid Embryonic Mortality: E8-E18; for Late Embryonic Mortality: E19-E21
Procedure: For a period of six days, eggs were collected from the broiler breeder flock of Example 4 above. The eggs were stored based on breeder pen and storage day for an additional three days before the brooding period started. All eggs were incubated until hatch. All eggs were distributed over 24 trays and 6 blocks, with each block representing a storage day.
A total of 2160 eggs derived from the 37-38 week broiler breeders (Ross 308) of Example 4 were collected and stored in the egg storage unit of the broiler breeder facility. At the start of the incubation period, the eggs were weighed and allocated into blocks, each block representing a storage day. Each block consisted of 24 experimental units, with each experimental unit indicating a group of 15 eggs. Only intact eggs were included and eggs that were cracked, dirty or that had deformed shells were excluded from the trial.
The eggs were placed in a Nature Form NMC 2340 Incubator with automatic control of temperature and relative humidity. From E0 till E18 the eggs were placed in setter trolleys, which consist of two shelves with a capacity for 13 trays each. Each tray has three flats of 30 eggs each. During this period, the incubator start temperature was set at 37.5° C. and relative humidity at 54%.
After the setter period (E0-E18), eggs were transferred to baskets in the hatchers based on the blocking and tray structure in the setter. The eggs were placed into subdivisions of a hatching crate (per experimental unit of 15 eggs), and following tray order per block (starting with 1AO ending with 24CI). Each hatcher trolley has twelve baskets with a capacity for 180 eggs each. Eggs of tray 1-12 were placed in incubator machine 1, eggs of tray 13-24 were placed in incubator machine 2. During this period, the incubator temperature was set at 36.7° C. and relative humidity at 70%.
Group egg weights were recorded at E0. At E7 and E18, all eggs were candled and empty eggs or eggs containing dead embryos were removed (early dead E0-E7, mid dead E8-E18). At E18 eggs were transferred to the hatching baskets after candling. At hatch (E21) the number of dead chickens, late dead embryos (E19-E21) and pipped eggs were recorded. The number of hatched chickens was recorded per replicate, as well as average chick weight. […] Sex was determined by feather sexing, female chickens were euthanized by CO2 and disposed according to local regulations. Per experimental unit, five male chickens were selected for the grow-out period and allocated to broiler grower pens. Only chickens with an average body weight, completely dry, showing active movement and with a good navel score were selected. After this selection one male chicken per experimental unit was selected for dissection. Sample chickens were individually weighed and killed by cervical dislocation to measure remaining yolk-sac weights, yolk-free body mass (“YFBM”), liver weight, chick length, and shank length of both shanks. The livers were immediately placed on dry ice and after dissection stored at −20° C. for further analysis (“SOD and GSSG”). Relative asymmetry was calculated according to the following formula:
RA=(|L−R|/[(L+R)/2])×100.

## Cc1c(C)c2c(c(C)c1O)CCC(C)(CCCC(C)CCCC(C)CCCC(C)C)O2 (racemic) [Vitamin E, DL-α-tocopherol]
Ross 308 breeders; vitamin E equivalence 80 ppm
  Average daily gain 30-34 wk: 5.36 g
  Average daily gain 30-39 wk: 5.79 g
  Average daily gain 34-39 wk: 5.96 g
  Bodyweight 30 wks: 3.51 kg
  Bodyweight 39 wks: 3.88 kg
  Egg mass 30-34 wks: 52.4 g/h/d
  Egg mass 30-39 wks: 51.6 g/h/d
  Egg mass 34-39 wks: 50.9 g/h/d
  Egg weight 30-34 wks: 60.1 g
  Egg weight 30-39 wks: 61.2 g
  Egg weight 34-39 wks: 62.4 g
  First Class Eggs 30-34 wks: 80.2%
  First Class Eggs 30-39 wks: 77.0%
  First Class Eggs 34-39 wks: 73.8%
  Laying in percentage 30-34 wks: 87.1%
  Laying in percentage 30-39 wks: 84.3%
  Laying in percentage 34-39 wks: 81.5%
  Second Choice Eggs: Broken Eggs 30-34 wks: 1.2%
  Second Choice Eggs: Broken Eggs 30-39 wks: 1.2%
  Second Choice Eggs: Broken Eggs 34-39 wks: 1.2%
  Second Choice Eggs: Dirty Eggs 30-34 wks: 1.4%
  Second Choice Eggs: Dirty Eggs 30-39 wks: 1.7%
  Second Choice Eggs: Dirty Eggs 34-39 wks: 1.9%
  Second Choice Eggs: Double yolk Eggs 30-34 wks: 1.3%
  Second Choice Eggs: Double yolk Eggs 30-39 wks: 0.9%
  Second Choice Eggs: Double yolk Eggs 34-39 wks: 0.4%
  Second Choice Eggs: Floor eggs, 30-34 wks: 2.3%
  Second Choice Eggs: Floor eggs, 30-39 wks: 2.8%
  Second Choice Eggs: Floor eggs, 34-39 wks: 3.4%
  Second Choice Eggs: Remainder 30-34 wks: 0.5%
  Second Choice Eggs: Remainder 30-39 wks: 0.6%
  Second Choice Eggs: Remainder 34-39 wks: 0.8%
  Second Choice Eggs: Shell less Eggs 30-34 wks: 0.2%
  Second Choice Eggs: Shell less Eggs 30-39 wks: 0.1%
  Second Choice Eggs: Shell less Eggs 34-39 wks: 0.0%
Ross 308 breeders; vitamin E equivalence 160 ppm
  Average daily gain 30-34 wk: 5.65 g
  Average daily gain 30-39 wk: 5.60 g
  Average daily gain 34-39 wk: 5.40 g
  Bodyweight 30 wks: 3.48 kg
  Bodyweight 39 wks: 3.83 kg
  Egg mass 30-34 wks: 52.5 g/h/d
  Egg mass 30-39 wks: 52.4 g/h/d
  Egg mass 34-39 wks: 52.2 g/h/d
  Egg weight 30-34 wks: 60.3 g
  Egg weight 30-39 wks: 61.6 g
  Egg weight 34-39 wks: 62.9 g
  First Class Eggs 30-34 wks: 78.6%
  First Class Eggs 30-39 wks: 76.5%
  First Class Eggs 34-39 wks: 74.4%
  Laying in percentage 30-34 wks: 87.0%
  Laying in percentage 30-39 wks: 85.0%
  Laying in percentage 34-39 wks: 83.0%
  Second Choice Eggs: Broken Eggs 30-34 wks: 1.2%
  Second Choice Eggs: Broken Eggs 30-39 wks: 1.3%
  Second Choice Eggs: Broken Eggs 34-39 wks: 1.5%
  Second Choice Eggs: Dirty Eggs 30-34 wks: 1.8%
  Second Choice Eggs: Dirty Eggs 30-39 wks: 1.8%
  Second Choice Eggs: Dirty Eggs 34-39 wks: 1.7%
  Second Choice Eggs: Double yolk Eggs 30-34 wks: 1.1%
  Second Choice Eggs: Double yolk Eggs 30-39 wks: 0.8%
  Second Choice Eggs: Double yolk Eggs 34-39 wks: 0.5%
  Second Choice Eggs: Floor eggs, 30-34 wks: 3.3%
  Second Choice Eggs: Floor eggs, 30-39 wks: 3.7%
  Second Choice Eggs: Floor eggs, 34-39 wks: 4.1%
  Second Choice Eggs: Remainder 30-34 wks: 0.8%
  Second Choice Eggs: Remainder 30-39 wks: 0.7%
  Second Choice Eggs: Remainder 34-39 wks: 0.6%
  Second Choice Eggs: Shell less Eggs 30-34 wks: 0.3%
  Second Choice Eggs: Shell less Eggs 30-39 wks: 0.2%
  Second Choice Eggs: Shell less Eggs 34-39 wks: 0.2%
Ross 308 embryos; vitamin E equivalence 80 ppm
  Chick length: 18.3 cm
  Chick weight average: 43.8 g
  Chick weight dissected chicks: 42.8 g
  Liver weight: 1.2 g
  Relative asymmetry: 2.4%
  YFBM (yolk free body mass): 39.6 g
  Yolk weight: 4.2 g
  Egg weight EQ: 62.9 g
  Relative liver weight: 2.8%
  Relative yolk weight: 9.7%
  Relative chick weight: 69.7%
  Empty eggs: 1.2%
  Hatchability of fertile: 91.8%
  Hatchability of total: 90.6%
  Total Embryonic Mortality: 7.7%
  Early Embryonic Mortality: 4.0%
  Mid Embryonic Mortality: 1.6%
  Late Embryonic Mortality: 2.7%
Ross 308 embryos; vitamin E equivalence 160 ppm
  Chick length: 18.4 cm
  Chick weight average: 43.7 g
  Chick weight dissected chicks: 43.6 g
  Liver weight: 1.2 g
  Relative asymmetry: 2.3%
  YFBM (yolk free body mass): 40.6 g
  Yolk weight: 4.2 g
  Egg weight EQ: 63.0 g
  Relative liver weight: 2.7%
  Relative yolk weight: 9.4%
  Relative chick weight: 69.4%
  Empty eggs: 0.0%
  Hatchability of fertile: 90.2%
  Hatchability of total: 90.2%
  Total Embryonic Mortality: 8.6%
  Early Embryonic Mortality: 6.6%
  Mid Embryonic Mortality: 0.5%
  Late Embryonic Mortality: 1.8%
